The test system of assay [1] is vascular endothelial cell. As to conditions: endothelial versus tumor cell proliferation; cited from earlier work.
In the next assay the test system is MCF-7 cell. Nature of the assay: estrogen dependent MCF-7 cell proliferation. The format is cell-based. As to conditions: over a wide range of concentrations. From the text:
2-Methoxyestradiol is an endogenous, steroidal metabolite of estradiol (E2) that has potent anti-proliferative activity and induces apoptosis in a wide variety of tumor and non-tumor cell lines. […] What is needed is a series of compounds that constitute analogs of 2-methoxyestradiol which are non-steroidal in structure and which will have similar biological properties to 2-methoxyestradiol and that can be used in similar applications.

For assay [2], the system named is chick embryo chorioallantoic membrane. As to the kind of experiment: chick embryo chorioallantoic membrane (CAM) assay. It counts as in vivo. Conditions: 100 μg methylcellulose disk, after 48 hours. From the text:
Anti-proliferative activity can be evaluated in situ by testing the ability of the new non-steroidal estradiol derivatives to inhibit the proliferation of new blood vessel cells (angiogenesis). A suitable assay is the chick embryo chorioallantoic membrane (CAM) assay described by Crum et al. Science 230:1375 (1985). See also, U.S. Pat. No. 5,001,116, hereby incorporated by reference, which describes the CAM assay. Briefly, fertilized chick embryos are removed from their shell on day 3 or 4, and a methylcellulose disc containing the drug is implanted on the chorioallantoic membrane. The embryos are examined 48 hours later and, if a clear avascular zone appears around the methylcellulose disc, the diameter of that zone is measured.

Turning to `CO[C@@H]1[C@H](OC(=O)NC(=O)CCl)CC[C@]2(CO2)[C@H]1[C@@]1(C)O[C@@H]1CC=C(C)C` [AGM-1470], the “half-maximal inhibition of endothelial cell proliferation, concentration lower than for tumor cell proliferation” value in assay [1] was 4 logs.
As to `COc1cc2c(cc1O)CC[C@@H]1[C@@H]2CC[C@]2(C)[C@@H](O)CC[C@@H]12` [2-methoxyestradiol], the estrogenic activity entry with MCF-7 cell is recorded as “not estrogenic”. Further, the “inhibition of cell mitosis and growth of new blood vessels” value in assay [2] was “inhibit cell mitosis and the growth of new blood vessels”.

These data come from US20030187076A1, “Non-steroidal analogs of 2-methoxyestradiol” (priority 2002, published 2003).
